{"source": "paper PMC8522722", "about": "“Safety and Pharmacokinetics in Human Volunteers of Taniborbactam (VNRX-5133), a Novel Intravenous β-Lactamase Inhibitor” (Antimicrobial Agents and Chemotherapy, 2021)", "key": {"[1]": {"design": "species or system human", "details": "in vivo", "description": "(§1) Eligible subjects were randomized to receive either taniborbactam or placebo in a 3:1 ratio within dose cohorts in both the SAD and MAD parts of the study. Each dose cohort in the SAD part of the study enrolled 8 subjects, and each dose cohort in the MAD part of the study enrolled 12 subjects. In the SAD part, subjects received 62.5, 125, 250, 500, 1,000, or 1,500 mg taniborbactam as a 2-h intravenous (i.v.) infusion. In the MAD part, subjects received 2-h intravenous i.v. infusions of 250, 500, or 750 mg taniborbactam q8h over 10 days, ending after a final morning dose on day 10 (total of 28 doses).\n(§2) Safety was assessed based on the occurrence of adverse events and evaluation of laboratory tests (chemistry, hematology, urinalysis), physical examination, vital signs, and 12-lead electrocardiograms (ECGs) that were performed throughout the study. Safety was followed through 7 days postdose in the SAD part and followed through 7 days post-last dose in the MAD part."}, "[2]": {"assay": "Multiple-ascending-dose (MAD) pharmacokinetics in plasma and urine, healthy adult volunteers", "assay_type": "in vivo, human", "details": "for AUCtau / Cmax / CLR,SS / CLSS / Vz / t1/2 / Ae / Fe: mean (%CV); for Tmax: median (range); for t1/2: terminal elimination; for Ae / Fe: urine through the dosing interval (8 h); for AUCtau mean ratio, last dose compared to first dose: day 10 vs day 1", "description": "as §1\nBlood samples for assay of taniborbactam in plasma were collected predose and at 1, 2, 2.25, 2.5, 2.75, 3, 4, 6, 8, 12, 26, and 50 h after the start of drug infusion in the SAD part. For the MAD part, blood samples to determine taniborbactam plasma concentrations were collected predose and at 1, 2, 2.25, 2.5, 2.75, 3, 4, 6, and 8 h following the first dose (day 1) and predose and at 1, 2, 2.25, 2.5, 2.75, 3, 4, 6, 10, 14, and 26 h following the last dose (day 10). Urine was collected predose and at intervals of 0 to 4, 4 to 8, 8 to 24, and 24 to 48 h after the start of the infusion in the SAD part for the higher-dose groups (500 to 1,500 mg taniborbactam). For the MAD part, urine was collected through the dosing interval following the last dose using collection intervals of 0 to 4 and 4 to 8 h after the start of the infusion. At the end of each urine collection interval, the volume of each urine collection was recorded and a sample was taken.\nPlasma and urine samples were assayed for taniborbactam and screened for possible metabolites. Human dipotassium ethylenediaminetetraacetic acid (K2EDTA) plasma samples were processed using protein precipitation and assayed using ultra-high-performance liquid chromatography with tandem mass spectrometric detection (LC-MS/MS). Both low- and high-range methods were developed and validated for plasma samples, with calibration ranges of 5 to 5,000 ng/ml and 100 to 100,000 ng/ml, respectively. Acidified urine samples were processed using solid-phase extraction and assayed using a validated LC-MS/MS method with a calibration range of 5.0 to 5,000 ng/ml. For both matrices, separation was accomplished using a Waters Acquity HSS T3 column (Milford, MA) at 50°C, and gradient elution using 10 mM ammonium formate with 1% formic acid as mobile phase A and 50:50:1 acetonitrile:methanol:formic acid (vol/vol/vol) as mobile phase B. A triple quadrupole mass spectrometer (API Triple Quad 5500; AB Sciex, Framingham, MA) equipped with a turbo-ion spray set was used for detection in positive ion mode, and quantification was based on multiple reaction monitoring. The internal standard used in the assays was D4-taniborbactam.\nIndividual subject plasma and urine taniborbactam pharmacokinetic parameters were evaluated using noncompartmental analysis methods (Phoenix WinNonlin, Certara, Princeton, NJ). Single-dose pharmacokinetic parameters were determined in the SAD part, and both single-dose (day 1) and multiple-dose (day 10) pharmacokinetic parameters were determined in the MAD part. Estimated pharmacokinetic parameters included Cmax, time to Cmax (Tmax), AUCtau, AUC0–inf, t1/2, CL, VZ, Ae, Fe, and CLR. The actual sample times were used to calculate the pharmacokinetic parameters. Calculation of λZ was based on best fit of concentrations in the observed terminal elimination phase of a profile, and statistical inclusion of any parameter based on λZ required the goodness of fit statistic (R^2) to be greater than 0.8. Pharmacokinetic data were summarized using descriptive statistics by treatment. Dose proportionality based on Cmax and AUC was determined using linear regression to calculate the slope and 90% CI and observing whether a slope of 1 was included in the confidence interval. The dose proportionality analysis included subject body weight as a covariate in the analysis."}, "[3]": {"assay": "Safety and tolerability, treatment-emergent adverse events, SAD part", "assay_type": "in vivo, human", "description": "as §1, §2"}, "[4]": {"system": "Enterobacterales isolates", "design": "method as in ref 13, 14 = [13]; 13 Vidales A , Hackel M , Wise M , Sahm D . 2020 . Antimicrobial activity of cefepime in combination with taniborbactam (formerly VNRX-5133) against clinical isolates of Enterobacterales collected fro || [14]; 14 Kalamatas J , Hackel M , Wise M , Sahm D . 2020 . Antimicrobial activity of cefepime in combination with taniborbactam (formerly VNRX-5133) against a 2018–2019 surveillance collection of Pseudomona", "details": "cited from earlier work"}}, "data": [{"smiles": "NCCN[C@H]1CC[C@H](CC(=O)N[C@H]2Cc3cccc(C(=O)O)c3OB2O)CC1", "note": "[Taniborbactam]", "values": [{"measurement": "subjects with adverse events considered by the investigator to be treatment related", "setting": "[1]", "result": 4, "unit": "subjects"}, {"measurement": "AUCtau", "setting": "[2]; 250 mg q8h, day 1", "result": "34,447 (17.2) h · ng/ml"}, {"measurement": "Cmax", "setting": "[2]; 250 mg q8h, day 1", "result": "10,544 (18.3) ng/ml"}, {"measurement": "Tmax", "setting": "[2]; 250 mg q8h, day 1", "result": "2.0 (2.0, 2.1) h"}, {"measurement": "AUCtau", "setting": "[2]; 250 mg q8h, day 10", "result": "41,563 (15.1) h · ng/ml"}, {"measurement": "CLR,SS", "setting": "[2]; 250 mg q8h, day 10", "result": "5.2 (17.3) liters/h"}, {"measurement": "CLSS", "setting": "[2]; 250 mg q8h, day 10", "result": "6.2 (15.9) liters/h"}, {"measurement": "Cmax", "setting": "[2]; 250 mg q8h, day 10", "result": "11,188 (16.5) ng/ml"}, {"measurement": "Vz", "setting": "[2]; 250 mg q8h, day 10", "result": "36.0 (28.3) liters"}, {"measurement": "Tmax", "setting": "[2]; 250 mg q8h, day 10", "result": "2.0 (2.0, 2.1) h"}, {"measurement": "t1/2", "setting": "[2]; 250 mg q8h, day 10", "result": "4.1 (29.3) h"}, {"measurement": "Ae", "setting": "[2]; 250 mg q8h, day 10", "result": "211.0 (11.8) mg"}, {"measurement": "Fe", "setting": "[2]; 250 mg q8h, day 10", "result": "84.4 (11.8) %"}, {"measurement": "Fe", "setting": "[2]; 250 mg q8h, day 10, listed as taniborbactam", "result": 84.4, "unit": "%"}, {"measurement": "AUCtau mean ratio, last dose compared to first dose", "setting": "[2]; 250 mg q8h", "result": 1.21}, {"measurement": "AUCtau", "setting": "[2]; 500 mg q8h, day 1", "result": "81,890 (14.7) h · ng/ml"}, {"measurement": "Cmax", "setting": "[2]; 500 mg q8h, day 1", "result": "25,778 (15.2) ng/ml"}, {"measurement": "Tmax", "setting": "[2]; 500 mg q8h, day 1", "result": "2.0 (2.0, 2.1) h"}, {"measurement": "AUCtau", "setting": "[2]; 500 mg q8h, day 10", "result": "89,103 (13.8) h · ng/ml"}, {"measurement": "CLR,SS", "setting": "[2]; 500 mg q8h, day 10", "result": "5.3 (14.2) liters/h"}, {"measurement": "CLSS", "setting": "[2]; 500 mg q8h, day 10", "result": "5.7 (12.6) liters/h"}, {"measurement": "Cmax", "setting": "[2]; 500 mg q8h, day 10", "result": "26,533 (13.0) ng/ml"}, {"measurement": "Vz", "setting": "[2]; 500 mg q8h, day 10", "result": "39.8 (14.3) liters"}, {"measurement": "Tmax", "setting": "[2]; 500 mg q8h, day 10", "result": "2.0 (2.0, 2.3) h"}, {"measurement": "t1/2", "setting": "[2]; 500 mg q8h, day 10", "result": "4.9 (13.3) h"}, {"measurement": "Ae", "setting": "[2]; 500 mg q8h, day 10", "result": "462.2 (10.2) mg"}, {"measurement": "Fe", "setting": "[2]; 500 mg q8h, day 10", "result": "92.4 (10.2) %"}, {"measurement": "Fe", "setting": "[2]; 500 mg q8h, day 10, listed as taniborbactam", "result": 92.4, "unit": "%"}, {"measurement": "AUCtau mean ratio, last dose compared to first dose", "setting": "[2]; 500 mg q8h", "result": 1.09}, {"measurement": "AUCtau", "setting": "[2]; 750 mg q8h, day 1", "result": "119,140 (18.0) h · ng/ml"}, {"measurement": "Cmax", "setting": "[2]; 750 mg q8h, day 1", "result": "39,122 (23.7) ng/ml"}, {"measurement": "Tmax", "setting": "[2]; 750 mg q8h, day 1", "result": "2.0 (2.0, 2.3) h"}, {"measurement": "AUCtau", "setting": "[2]; 750 mg q8h, day 10", "result": "139,518 (21.6) h · ng/ml"}, {"measurement": "CLR,SS", "setting": "[2]; 750 mg q8h, day 10", "result": "5.2 (28.6) liters/h"}, {"measurement": "CLSS", "setting": "[2]; 750 mg q8h, day 10", "result": "5.6 (21.1) liters/h"}, {"measurement": "Cmax", "setting": "[2]; 750 mg q8h, day 10", "result": "38,778 (18.2) ng/ml"}, {"measurement": "Vz", "setting": "[2]; 750 mg q8h, day 10", "result": "37.4 (19.9) liters"}, {"measurement": "Tmax", "setting": "[2]; 750 mg q8h, day 10", "result": "2.0 (2.0, 2.3) h"}, {"measurement": "t1/2", "setting": "[2]; 750 mg q8h, day 10", "result": "4.7 (15.4) h"}, {"measurement": "Ae", "setting": "[2]; 750 mg q8h, day 10", "result": "692.2 (21.7) mg"}, {"measurement": "Fe", "setting": "[2]; 750 mg q8h, day 10", "result": "92.3 (21.7) %"}, {"measurement": "Fe", "setting": "[2]; 750 mg q8h, day 10, listed as taniborbactam", "result": 92.3, "unit": "%"}, {"measurement": "AUCtau mean ratio, last dose compared to first dose", "setting": "[2]; 750 mg q8h", "result": 1.17}, {"measurement": "administered dose recovered in urine as intact drug", "setting": "[2]; at steady state", "result": "approximately 90%"}, {"measurement": "deaths, serious adverse events, adverse events leading to discontinuation", "setting": "[3]; SAD and MAD parts", "result": "no deaths, serious adverse events, or adverse events leading to discontinuation"}, {"measurement": "Adverse event: Abdominal pain", "setting": "[3]; in vivo", "result": "1 (2.8) No. (%)"}, {"measurement": "Adverse event: Arthralgia", "setting": "[3]; in vivo", "result": "1 (2.8) No. (%)"}, {"measurement": "Adverse event: Back pain", "setting": "[3]; in vivo", "result": "1 (2.8) No. (%)"}, {"measurement": "Adverse event: Headache", "setting": "[3]; in vivo", "result": "1 (2.8) No. (%)"}, {"measurement": "Adverse event: Increased blood CPK", "setting": "[3]; in vivo", "result": "1 (2.8) No. (%)"}, {"measurement": "Adverse event: Increased hepatic enzyme", "setting": "[3]; in vivo", "result": "1 (2.8) No. (%)"}, {"measurement": "Adverse event: Migraine", "setting": "[3]; in vivo", "result": "1 (2.8) No. (%)"}, {"measurement": "Adverse event: Nausea", "setting": "[3]; in vivo", "result": "1 (2.8) No. (%)"}, {"measurement": "Adverse event: Pharyngitis", "setting": "[3]; in vivo", "result": "0 (0.0) No. (%)"}, {"measurement": "Adverse event: Viral URI", "setting": "[3]; in vivo", "result": "1 (2.8) No. (%)"}, {"measurement": "Adverse event: Vomiting", "setting": "[3]; in vivo", "result": "1 (2.8) No. (%)"}, {"measurement": "changes in vital signs, clinical laboratory evaluations, ECGs, physical examinations", "setting": "[3]; in vivo", "result": "no clinically significant changes"}, {"measurement": "subjects with adverse events considered by the investigator to be related to treatment", "setting": "[3]; in vivo", "result": 1, "unit": "subject"}, {"measurement": "potentiation of cefepime activity as measured by the MIC90", "setting": "[4]", "result": "at least 128 fold"}]}]}
